Experimental data published in the kinase profiling compilation of Christmann-Franck et al. (2016).

How the values were obtained:
Conditions in all cases: compound 10.0 µM
AKT3 (human) = AKT3 (human) (UniProt Q9Y243)
AURKC (human) = AURKC (human) (UniProt Q9UQB9)
BLK (human) = BLK (human) (UniProt P51451)
BRSK2 (human) = BRSK2 (human) (UniProt Q8IWQ3)
CAMK2D (human) = CAMK2D (human) (UniProt Q13557)
CDK2 CCNE1 (human) = CDK2 CCNE1 (human) (UniProt P24864+P24941)
CSNK1D (human) = CSNK1D (human) (UniProt P48730)
CSNK1G2 (human) = CSNK1G2 (human) (UniProt P78368)
Sequence of CSNK1G2 (human) (P78368 whole entry, looked up): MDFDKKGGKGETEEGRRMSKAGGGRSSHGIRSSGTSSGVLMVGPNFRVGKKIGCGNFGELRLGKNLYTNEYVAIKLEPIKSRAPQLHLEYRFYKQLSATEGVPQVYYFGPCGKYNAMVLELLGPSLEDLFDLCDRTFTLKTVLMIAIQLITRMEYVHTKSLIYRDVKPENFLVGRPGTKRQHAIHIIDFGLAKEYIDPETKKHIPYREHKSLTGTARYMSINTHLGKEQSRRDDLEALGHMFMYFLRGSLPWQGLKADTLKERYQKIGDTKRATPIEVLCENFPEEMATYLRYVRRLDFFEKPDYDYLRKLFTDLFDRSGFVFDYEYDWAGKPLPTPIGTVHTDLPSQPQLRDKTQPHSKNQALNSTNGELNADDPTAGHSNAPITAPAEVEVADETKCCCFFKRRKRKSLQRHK

DAPK1 (human) = DAPK1 (human) (UniProt P53355)
DAPK2 (human) = DAPK2 (human) (UniProt Q9UIK4)
DCLK2 (human) = DCLK2 (human) (UniProt Q8N568)
DYRK1B (human) = DYRK1B (human) (UniProt Q9Y463)
DYRK3 (human) = DYRK3 (human) (UniProt O43781)
EPHA5 (human) = EPHA5 (human) (UniProt P54756)
FRK (human) = FRK (human) (UniProt P42685)
GSG2 (human) = GSG2 (human) (UniProt Q8TF76)
GSK3B (human) = GSK3B (human) (UniProt P49841)
HCK (human) = HCK (human) (UniProt P08631)
HIPK1 (human) = HIPK1 (human) (UniProt Q86Z02)
IGF1R (human) = IGF1R (human) (UniProt P08069)
JAK1 JH1 JH2 (human) = JAK1 JH1 JH2 (human) (UniProt P23458)
JAK3 JH1 JH2 (human) = JAK3 JH1 JH2 (human) (UniProt P52333)
[1] = tested on: LYN (human), P07948 [23-43 del]
MAP2K6 (human) = MAP2K6 (human) (UniProt P52564)
MAP3K7 (human) = MAP3K7 (human) (UniProt O43318)
MAPK1 (human) = MAPK1 (human) (UniProt P28482)
Sequence of MAPK1 (human) (P28482 whole entry, looked up): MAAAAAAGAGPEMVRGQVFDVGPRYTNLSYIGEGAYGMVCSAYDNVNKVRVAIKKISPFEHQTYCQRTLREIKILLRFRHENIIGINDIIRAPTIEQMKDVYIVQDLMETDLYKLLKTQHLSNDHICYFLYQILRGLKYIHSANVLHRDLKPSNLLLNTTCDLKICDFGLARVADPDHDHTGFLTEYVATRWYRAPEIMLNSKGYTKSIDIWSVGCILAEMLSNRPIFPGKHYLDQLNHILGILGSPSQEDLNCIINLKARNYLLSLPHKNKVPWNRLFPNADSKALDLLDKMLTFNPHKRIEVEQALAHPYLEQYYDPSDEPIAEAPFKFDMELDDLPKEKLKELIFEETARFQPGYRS

MAPKAPK5 (human) = MAPKAPK5 (human) (UniProt Q8IW41)
Sequence of MAPKAPK5 (human) (Q8IW41 whole entry, looked up): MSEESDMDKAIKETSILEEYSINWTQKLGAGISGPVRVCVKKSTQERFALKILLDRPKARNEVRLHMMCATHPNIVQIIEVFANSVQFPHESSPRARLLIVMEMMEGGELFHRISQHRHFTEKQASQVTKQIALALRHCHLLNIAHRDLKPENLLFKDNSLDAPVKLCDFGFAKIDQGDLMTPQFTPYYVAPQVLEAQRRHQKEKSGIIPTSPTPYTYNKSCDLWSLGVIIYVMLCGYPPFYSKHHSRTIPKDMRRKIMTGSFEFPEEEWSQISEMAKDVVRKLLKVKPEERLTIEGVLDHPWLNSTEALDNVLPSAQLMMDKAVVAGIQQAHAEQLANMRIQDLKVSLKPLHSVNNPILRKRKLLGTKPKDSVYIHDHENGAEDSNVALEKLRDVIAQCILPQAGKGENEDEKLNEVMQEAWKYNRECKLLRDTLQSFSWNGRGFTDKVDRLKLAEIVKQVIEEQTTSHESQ

MYLK2 (human) = MYLK2 (human) (UniProt Q9H1R3)
NEK2 (human) = NEK2 (human) (UniProt P51955)
NEK7 (human) = NEK7 (human) (UniProt Q8TDX7)
NLK (human) = NLK (human) (UniProt Q9UBE8)
PKN2 (human) = PKN2 (human) (UniProt Q16513)
PLK1 (human) = PLK1 (human) (UniProt P53350)
PRKCB2 (human) = PRKCB2 (human) (UniProt P05771)
Sequence of PRKCB2 (human) (P05771 whole entry, looked up): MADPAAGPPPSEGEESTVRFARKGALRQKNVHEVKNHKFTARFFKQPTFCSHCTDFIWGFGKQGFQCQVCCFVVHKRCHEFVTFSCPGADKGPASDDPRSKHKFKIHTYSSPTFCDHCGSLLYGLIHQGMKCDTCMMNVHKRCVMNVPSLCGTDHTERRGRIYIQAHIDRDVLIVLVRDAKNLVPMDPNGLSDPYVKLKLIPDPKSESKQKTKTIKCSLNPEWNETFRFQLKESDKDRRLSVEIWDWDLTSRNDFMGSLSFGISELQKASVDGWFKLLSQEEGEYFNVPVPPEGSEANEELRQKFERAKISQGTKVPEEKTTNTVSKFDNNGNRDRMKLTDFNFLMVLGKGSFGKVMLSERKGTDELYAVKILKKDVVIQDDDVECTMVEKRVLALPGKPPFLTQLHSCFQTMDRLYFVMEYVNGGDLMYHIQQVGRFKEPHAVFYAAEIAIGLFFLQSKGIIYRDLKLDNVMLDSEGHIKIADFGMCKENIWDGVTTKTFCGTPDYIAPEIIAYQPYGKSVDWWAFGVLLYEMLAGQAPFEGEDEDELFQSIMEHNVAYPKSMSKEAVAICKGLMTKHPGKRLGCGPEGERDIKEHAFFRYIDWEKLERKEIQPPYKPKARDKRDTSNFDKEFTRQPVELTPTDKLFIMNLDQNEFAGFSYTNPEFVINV

PTK2 (human) = PTK2 (human) (UniProt Q05397)
RET (human) = RET (human) (UniProt P07949)
RPS6KA4 KD1 KD2 (human) = RPS6KA4 KD1 KD2 (human) (UniProt O75676)
Sequence of RPS6KA4 KD1 KD2 (human) (O75676 whole entry, looked up): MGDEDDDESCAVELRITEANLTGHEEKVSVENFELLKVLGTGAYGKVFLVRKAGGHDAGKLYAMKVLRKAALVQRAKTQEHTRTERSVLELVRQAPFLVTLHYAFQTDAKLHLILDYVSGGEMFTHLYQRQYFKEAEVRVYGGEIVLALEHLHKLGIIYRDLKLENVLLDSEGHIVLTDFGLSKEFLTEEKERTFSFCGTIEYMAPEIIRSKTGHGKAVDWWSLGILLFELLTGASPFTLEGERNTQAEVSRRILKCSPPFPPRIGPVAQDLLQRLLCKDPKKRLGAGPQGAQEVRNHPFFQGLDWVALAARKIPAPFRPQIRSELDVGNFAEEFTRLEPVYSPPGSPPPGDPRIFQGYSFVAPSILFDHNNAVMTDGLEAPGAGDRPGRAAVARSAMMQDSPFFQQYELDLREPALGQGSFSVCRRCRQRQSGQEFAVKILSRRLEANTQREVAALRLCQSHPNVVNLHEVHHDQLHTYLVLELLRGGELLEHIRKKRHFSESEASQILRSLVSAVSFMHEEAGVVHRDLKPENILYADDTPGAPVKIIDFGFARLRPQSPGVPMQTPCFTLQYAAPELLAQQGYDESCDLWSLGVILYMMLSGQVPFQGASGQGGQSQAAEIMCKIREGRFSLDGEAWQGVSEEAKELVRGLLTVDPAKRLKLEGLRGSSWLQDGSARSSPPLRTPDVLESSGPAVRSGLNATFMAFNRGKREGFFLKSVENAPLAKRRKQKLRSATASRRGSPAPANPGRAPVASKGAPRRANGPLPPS

STK3 (human) = STK3 (human) (UniProt Q13188)
TEC (human) = TEC (human) (UniProt P42680)
Sequence of TEC (human) (P42680 whole entry, looked up): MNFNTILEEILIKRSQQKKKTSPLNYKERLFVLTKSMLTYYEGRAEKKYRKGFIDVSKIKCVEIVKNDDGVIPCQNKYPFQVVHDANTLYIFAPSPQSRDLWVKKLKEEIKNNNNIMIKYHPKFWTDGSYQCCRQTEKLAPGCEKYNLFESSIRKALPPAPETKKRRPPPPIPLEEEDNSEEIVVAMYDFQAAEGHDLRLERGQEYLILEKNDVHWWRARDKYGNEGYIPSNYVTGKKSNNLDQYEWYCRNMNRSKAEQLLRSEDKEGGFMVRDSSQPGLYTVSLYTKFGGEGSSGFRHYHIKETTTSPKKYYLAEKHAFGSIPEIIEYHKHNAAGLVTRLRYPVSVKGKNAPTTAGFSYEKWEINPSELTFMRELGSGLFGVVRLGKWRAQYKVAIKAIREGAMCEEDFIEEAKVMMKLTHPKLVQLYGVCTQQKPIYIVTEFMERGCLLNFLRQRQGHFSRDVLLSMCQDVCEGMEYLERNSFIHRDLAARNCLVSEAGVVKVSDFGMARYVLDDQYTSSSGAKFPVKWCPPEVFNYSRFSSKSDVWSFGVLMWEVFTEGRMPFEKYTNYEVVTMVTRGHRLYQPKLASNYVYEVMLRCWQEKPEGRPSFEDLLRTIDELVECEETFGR

TGFBR2 (human) = TGFBR2 (human) (UniProt P37173)
Sequence of TGFBR2 (human) (P37173 whole entry, looked up): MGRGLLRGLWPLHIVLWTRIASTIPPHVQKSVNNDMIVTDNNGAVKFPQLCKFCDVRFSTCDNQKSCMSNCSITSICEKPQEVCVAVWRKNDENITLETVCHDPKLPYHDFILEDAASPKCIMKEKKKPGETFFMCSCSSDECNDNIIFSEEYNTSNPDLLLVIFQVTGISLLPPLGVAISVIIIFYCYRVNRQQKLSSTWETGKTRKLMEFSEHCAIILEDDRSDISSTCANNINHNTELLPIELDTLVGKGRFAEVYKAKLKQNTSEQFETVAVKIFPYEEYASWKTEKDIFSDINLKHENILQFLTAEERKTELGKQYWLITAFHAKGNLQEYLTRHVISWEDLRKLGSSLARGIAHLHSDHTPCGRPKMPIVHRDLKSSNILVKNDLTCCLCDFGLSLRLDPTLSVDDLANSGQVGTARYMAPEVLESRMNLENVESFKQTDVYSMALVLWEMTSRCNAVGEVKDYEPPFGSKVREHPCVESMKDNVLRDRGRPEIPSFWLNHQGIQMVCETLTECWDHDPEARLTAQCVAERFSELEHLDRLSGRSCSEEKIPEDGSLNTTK

TXK (human) = TXK (human) (UniProt P42681)
TYRO3 (human) = TYRO3 (human) (UniProt Q06418)
WEE1 (human) = WEE1 (human) (UniProt P30291)
ZAP70 (human) = ZAP70 (human) (UniProt P43403)
Sequence of ZAP70 (human) (P43403 whole entry, looked up): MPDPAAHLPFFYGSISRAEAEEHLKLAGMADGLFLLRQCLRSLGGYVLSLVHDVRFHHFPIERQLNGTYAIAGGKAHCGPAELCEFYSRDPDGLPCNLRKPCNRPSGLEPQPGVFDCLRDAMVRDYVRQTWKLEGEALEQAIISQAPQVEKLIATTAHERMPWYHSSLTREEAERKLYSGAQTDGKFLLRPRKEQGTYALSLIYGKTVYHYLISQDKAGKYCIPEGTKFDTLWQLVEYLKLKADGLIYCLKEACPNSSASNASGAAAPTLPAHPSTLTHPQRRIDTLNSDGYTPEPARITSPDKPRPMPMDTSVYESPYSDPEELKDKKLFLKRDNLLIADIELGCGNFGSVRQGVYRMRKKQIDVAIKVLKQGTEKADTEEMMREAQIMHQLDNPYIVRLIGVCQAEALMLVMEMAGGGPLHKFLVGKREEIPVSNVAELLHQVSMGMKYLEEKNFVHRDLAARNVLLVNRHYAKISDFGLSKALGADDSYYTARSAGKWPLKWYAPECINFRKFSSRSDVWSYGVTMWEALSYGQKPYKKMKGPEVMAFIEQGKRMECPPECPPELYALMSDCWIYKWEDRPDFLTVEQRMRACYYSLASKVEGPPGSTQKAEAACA

Sequence of BLK (human) (P51451 whole entry, looked up): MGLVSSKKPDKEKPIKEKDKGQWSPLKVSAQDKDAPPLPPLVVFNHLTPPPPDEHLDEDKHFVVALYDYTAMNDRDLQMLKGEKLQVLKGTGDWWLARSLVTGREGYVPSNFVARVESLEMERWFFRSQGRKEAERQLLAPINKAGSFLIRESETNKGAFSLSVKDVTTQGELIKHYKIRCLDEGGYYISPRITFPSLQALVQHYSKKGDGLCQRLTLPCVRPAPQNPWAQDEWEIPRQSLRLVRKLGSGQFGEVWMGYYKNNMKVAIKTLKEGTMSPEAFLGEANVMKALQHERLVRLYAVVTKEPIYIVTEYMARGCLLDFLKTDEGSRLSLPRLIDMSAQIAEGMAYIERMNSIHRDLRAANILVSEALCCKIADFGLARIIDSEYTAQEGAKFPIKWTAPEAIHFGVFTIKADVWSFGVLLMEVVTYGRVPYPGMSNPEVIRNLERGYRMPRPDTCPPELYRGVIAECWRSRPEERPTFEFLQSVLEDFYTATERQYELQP

Work on `CC[C@H](C)n1cc(C)c2c(C(=O)NCc3c(C)cc(C)[nH]c3=O)cc(-c3ccc(N4CCNCC4)nc3)cc21` yielded a residual activity (AKT3 (human)) of 94%, a residual activity (AURKC (human)) of 101% and a residual activity (BLK (human)) of 81.5%. For the same compound, the residual activity (BRSK2 (human)) was 103%, the residual activity (CAMK2D (human)) was 100% and the residual activity (CDK2 CCNE1 (human)) was 96%. It also gave a residual activity (CSNK1D (human)) of 100%, a residual activity (CSNK1G2 (human)) of 90.5% and a residual activity (DAPK1 (human)) of 96.5%. It also gave a residual activity (DAPK2 (human)) of 106%, a residual activity (DCLK2 (human)) of 104% and a residual activity (DYRK1B (human)) of 90.5%. It also gave a residual activity (DYRK3 (human)) of 96.5%, a residual activity (EPHA5 (human)) of 77% and a residual activity (FRK (human)) of 97%. It also gave a residual activity (GSG2 (human)) of 98%, a residual activity (GSK3B (human)) of 96% and a residual activity (HCK (human)) of 101%. For the same compound, the residual activity (HIPK1 (human)) was 99%, the residual activity (IGF1R (human)) was 96.5% and the residual activity (JAK1 JH1 JH2 (human)) was 97.5%. For the same compound, the residual activity (JAK3 JH1 JH2 (human)) was 95.5%, the residual activity [1] was 92% and the residual activity (MAP2K6 (human)) was 94.5%. For the same compound, the residual activity (MAP3K7 (human)) was 106%, the residual activity (MAPK1 (human)) was 95% and the residual activity (MAPKAPK5 (human)) was 86%. For the same compound, the residual activity (MYLK2 (human)) was 96.5%, the residual activity (NEK2 (human)) was 103% and the residual activity (NEK7 (human)) was 99.5%. For the same compound, the residual activity (NLK (human)) was 95%, the residual activity (PKN2 (human)) was 89.5% and the residual activity (PLK1 (human)) was 98.5%. The residual activity (PRKCB2 (human)) was 94%, the residual activity (PTK2 (human)) was 91.5% and the residual activity (RET (human)) was 98.5%. The residual activity (RPS6KA4 KD1 KD2 (human)) was 90.5%, the residual activity (STK3 (human)) was 90% and the residual activity (TEC (human)) was 81.5%. It also gave a residual activity (TGFBR2 (human)) of 100%, a residual activity (TXK (human)) of 85.5% and a residual activity (TYRO3 (human)) of 94.5%. It also gave a residual activity (WEE1 (human)) of 100% and a residual activity (ZAP70 (human)) of 97.5%.
